Measurements reported in patent US20110319338A1, “PEPTIDES THAT BIND EUKARYOTIC TRANSLATION INITIATION FACTOR 4E” (The Board of Regents of the University of Texas System, priority 2008, published 2011).
Square brackets hold non-standard residues; d marks the D form. Ends that are not written are not given here.

System: GnRH-RI-positive and -negative lines
Assay: Cell viability assay across cell lines
Type: cell-based
Conditions: 3 days
Protocol: FIGS. 3A-3H. Uptake, binding and inhibitory effects of [DLys6]GnRH-4EBP fusion peptides. (FIG. 3A) Sequences of [DLys6]GnRH, and wild-type and mutant 4EBP1 peptides fused to the agonist. (FIG. 3B) Western blot of GnRH-RI levels in OVCAR-3, ES-2, MDA-MB-231, BJ, HUVEC and SKOV3 cells. (FIG. 3C) Detection of biotinylated peptides in OVCAR-3 and SKOV3 by Texas Red-conjugated streptavidin at 16 hours after peptide addition (3 micromoles per liter). In (FIGS. 3D and 3E), biotinylated peptides were incubated with OVCAR-3 cell lysate as described in FIG. 1. In (FIG. 3D), peptide was pulled down using streptavidin-agarose. Precipitates (P) and supernatants (S) were analyzed by Western blot using eIF4E antibody. In (FIG. 3E), immunoprecipitation was performed using eIF4E antibody, and Western blot performed using eIF4G antibody. […]
FIGS. 14A-14B. […] Viability of cells at 3 days after peptide addition was measured by crystal violet staining and is expressed relative to viability of cells incubated with no peptide. […] Staining of cells with FITC-Annexin V and PI was analyzed by flow cytometry.
Cell viability and TUNEL assays. […] Cells were stained with 0.5% crystal violet solution, and absorbance measured at 570 nm. […] Cells were fixed in 70% ethanol and the extent of apoptosis was determined by flow cytometric analysis of TUNEL-staining using the APO-BRDU kit (Phoenix Flow Systems, San Diego Calif.). […]

[DLys6]GnRH: GnRH agonist with a D-amino acid substitution at position 6; GnRH-RI-targeting moiety (QHWSY[dK]LRPG; not fully specified (residue 1, C-terminus); ends and bridges not checked)
cell growth across lines: did not significantly inhibit cell growth
